Assay results from US11999727B2 (Tango Therapeutics, Inc., priority 2020, dated 2024).

Experiments:
[1] = molecular target: T1, PRMT5 (Homo sapiens, UniProt O14744); assay: PRMT5 biochemical IC50 assay with SAM as cofactor; details: PRMT5, SAM as cofactor; read-out: SAM IC50
T1 construct: purchased Viva (custom protein)

[2] = molecular target: T1, PRMT5; assay: PRMT5 biochemical IC50 assay with no cofactor; details: PRMT5, no cofactor
Text: Table 1 indicates IC50 values (μM) against PRMT5 for exemplary compounds in the presence of SAM as cofactor, with no cofactor, and with MTA as cofactor, respectively (columns 4-6). […] Ki values can be calculated from the IC50 values as described in the Examples section. As detailed in the Examples section, for the assay performed in the presence of SAM, IC50=Ki×1.5 (Ki=IC50/1.5).

[3] = molecular target: T1, PRMT5; assay: PRMT5 biochemical IC50 assay with MTA as cofactor; details: PRMT5, MTA as cofactor; read-out: MTA IC50
[4] = system: HAP1 MTAP-intact cell line; assay: SDMA in-cell western assay, HAP1 MTAP-intact; format: cell-based; details: Homo sapiens, HAP1, SDMA in-cell western, HAP1 MTAP-intact; read-out: MTAP HAP1 intact IC50
Method in brief: (§1)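 MTAP-null vs endogenous-MTAP HAP1 isogenic cells; in-cell western SDMA readout; IC50 per line.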

[5] = system: HAP1 MTAP-deleted cell line; assay: SDMA in-cell western assay, HAP1 MTAP-deleted; format: cell-based; details: for IC50: Homo sapiens, HAP1, SDMA in-cell western, HAP1 MTAP-deleted; for MTAP intact/deleted ratio: IC50 ratio HAP1 MTAP-intact / HAP1 MTAP-deleted, SDMA in-cell western
Method in brief: as §1

[6] = system: HAP1 MTAP-deleted cell line; assay: Viability assay, MTAP-deleted cell line; format: cell-based; details: Homo sapiens, HAP1, viability assay, MTAP-deleted cell line; read-out: HAP1 MTAP deleted viability
Text: Table 1 additionally indicates IC50 values in a viability assay for the MTAP-deleted cell line (column 10), indicating the effect of treatment with compound on cell survival.

[7] = read-out: No Cofactor/ rel IC50
[8] = read-out: HAP 1 MTAP deleted IC50
[9] = read-out: HAP1 MTAP deleted IC50

T1 sequence (O14744 whole entry): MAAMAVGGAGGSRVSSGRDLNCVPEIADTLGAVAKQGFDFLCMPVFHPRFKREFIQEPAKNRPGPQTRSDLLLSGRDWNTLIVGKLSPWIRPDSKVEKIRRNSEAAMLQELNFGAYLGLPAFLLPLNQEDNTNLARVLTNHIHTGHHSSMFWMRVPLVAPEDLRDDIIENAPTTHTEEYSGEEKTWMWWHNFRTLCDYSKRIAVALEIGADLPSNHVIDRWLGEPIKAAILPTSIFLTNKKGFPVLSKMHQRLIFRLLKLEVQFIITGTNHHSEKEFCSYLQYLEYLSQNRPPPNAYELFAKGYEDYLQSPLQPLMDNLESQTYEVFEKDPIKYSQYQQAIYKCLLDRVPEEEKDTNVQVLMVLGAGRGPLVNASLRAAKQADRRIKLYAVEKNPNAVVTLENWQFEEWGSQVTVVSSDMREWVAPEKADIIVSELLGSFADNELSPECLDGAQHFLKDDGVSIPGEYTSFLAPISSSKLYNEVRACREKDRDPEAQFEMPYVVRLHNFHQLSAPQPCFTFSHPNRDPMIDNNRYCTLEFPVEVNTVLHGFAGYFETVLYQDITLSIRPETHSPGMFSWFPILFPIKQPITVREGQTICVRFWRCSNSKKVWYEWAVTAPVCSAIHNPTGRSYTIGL
T1 sequence (Q9BQA1 whole entry partner): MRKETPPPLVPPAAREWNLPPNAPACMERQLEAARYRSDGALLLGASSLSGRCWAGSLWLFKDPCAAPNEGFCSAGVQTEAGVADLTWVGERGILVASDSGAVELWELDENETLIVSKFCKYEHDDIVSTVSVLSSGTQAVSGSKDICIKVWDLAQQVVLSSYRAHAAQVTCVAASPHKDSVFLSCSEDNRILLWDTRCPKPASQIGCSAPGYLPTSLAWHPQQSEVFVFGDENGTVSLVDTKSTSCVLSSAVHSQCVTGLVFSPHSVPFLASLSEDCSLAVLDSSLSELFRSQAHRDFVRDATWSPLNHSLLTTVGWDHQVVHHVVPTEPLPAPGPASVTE

C[C@H]1CC[C@@H](C2CCCCC2)N(C(=O)C(=O)Nc2cncc(C(N)=O)c2)C1 (single isomer, unassigned) [Compound 121]
IC50 [1]: 50 to 500 nM
IC50 [2, 7]: 50 to 500 nM
IC50 [3]: < 50 nM
IC50 [4]: > 1000 nM
IC50 [5, 8]: < 100 nM
MTAP intact/deleted ratio [5]: A (an IC50 ratio greater than or equal to 10 fold)
IC50 [6]: 1000 to 10000 nM

Cc1cc(NC(=O)C(=O)N2C[C@H]3CC[C@H](C3)[C@H]2c2cccs2)cnc1N (single isomer, unassigned) [Compound 134]
IC50 [1]: > 500 nM
IC50 [2, 7]: > 500 nM
IC50 [3]: > 500 nM
IC50 [4]: > 1000 nM
IC50 [5, 8]: > 1000 nM
MTAP intact/deleted ratio [5]: C (an IC50 ratio of less than 3 fold)
IC50 [6]: > 10000 nM

Cc1cc(NC(=O)C(=O)N2C[C@@H]3CC[C@@H](C3)[C@@H]2c2cccs2)cnc1N (single isomer, unassigned) [Compound 137]
IC50 [1]: 50 to 500 nM
IC50 [2, 7]: 50 to 500 nM
IC50 [3]: < 50 nM
IC50 [4]: > 1000 nM
IC50 [5, 8]: < 100 nM
MTAP intact/deleted ratio [5]: A (an IC50 ratio greater than or equal to 10 fold)
IC50 [6]: > 10000 nM

Cc1cc(NC(=O)C(=O)N2C[C@H](C)CC[C@H]2C2CCCCC2)cnc1N (single isomer, unassigned) [Compound 148]
IC50 [1]: 50 to 500 nM
IC50 [2, 7]: 50 to 500 nM
IC50 [3]: < 50 nM
IC50 [4]: 100 to 1000 nM
IC50 [5, 8]: < 100 nM
MTAP intact/deleted ratio [5]: A (an IC50 ratio greater than or equal to 10 fold)
IC50 [6]: 1000 to 10000 nM

Cc1cc(NC(=O)C(=O)N2CCCC[C@H]2C(C)C)cnc1N (single isomer, unassigned) [Compound 192]
IC50 [1]: 50 to 500 nM
IC50 ([2]; read-out: No Cofactor/rel IC50): 50 to 500 nM
IC50 [3]: < 50 nM
IC50 [4]: > 1000 nM
IC50 [5, 9]: 100 to 1000 nM
MTAP intact/deleted ratio [5]: A (an IC50 ratio greater than or equal to 10 fold)
IC50 [6]: > 10000 nM

CC1(C)CCC[C@@H]2CN(C(=O)C(=O)Nc3cncc(C(N)=O)c3)CC[C@H]21 (single isomer, unassigned) [Compound 193]
IC50 [1]: 50 to 500 nM
IC50 ([2]; read-out: No Cofactor/rel IC50): 50 to 500 nM
IC50 [3]: < 50 nM
IC50 [4]: > 1000 nM
IC50 [5, 9]: < 100 nM
MTAP intact/deleted ratio [5]: A (an IC50 ratio greater than or equal to 10 fold)
IC50 [6]: 1000 to 10000 nM

NC(=O)c1cncc(NC(=O)C(=O)N2C[C@H]3CC[C@H](C3)[C@H]2c2ccccc2)c1 (single isomer, unassigned) [Compound 194]
IC50 [1]: > 500 nM
IC50 ([2]; read-out: No Cofactor/rel IC50): > 500 nM
IC50 [3]: > 500 nM
IC50 [4]: > 1000 nM
IC50 [5, 9]: > 1000 nM
MTAP intact/deleted ratio [5]: C (an IC50 ratio of less than 3 fold)
IC50 [6]: > 10000 nM

Cc1ncc(NC(=O)C(=O)N2C[C@H](C)CC[C@H]2c2ccccc2)cc1C(N)=O (single isomer, unassigned) [Compound 196]
IC50 [1]: > 500 nM
IC50 ([2]; read-out: No Cofactor/rel IC50): > 500 nM
IC50 [3]: > 500 nM
IC50 [4]: > 1000 nM
IC50 [5, 9]: > 1000 nM
MTAP intact/deleted ratio [5]: C (an IC50 ratio of less than 3 fold)
IC50 [6]: > 10000 nM

CC1(C)CCC[C@H]2CN(C(=O)C(=O)Nc3cncc(C(N)=O)c3)CC[C@@H]21 (single isomer, unassigned) [Compound 197]
IC50 [1]: 50 to 500 nM
IC50 ([2]; read-out: No Cofactor/rel IC50): > 500 nM
IC50 [3]: 50 to 500 nM
IC50 [4]: > 1000 nM
IC50 [5, 9]: > 1000 nM
MTAP intact/deleted ratio [5]: C (an IC50 ratio of less than 3 fold)
IC50 [6]: > 10000 nM

C[C@H]1CC[C@H](c2cccs2)N(C(=O)C(=O)Nc2cncc(C(N)=O)c2)C1 (single isomer, unassigned) [Compound 198]
IC50 [1]: 50 to 500 nM
IC50 ([2]; read-out: No Cofactor/rel IC50): < 50 nM
IC50 [3]: < 50 nM
IC50 [4]: 100 to 1000 nM
IC50 [5, 9]: < 100 nM
MTAP intact/deleted ratio [5]: A (an IC50 ratio greater than or equal to 10 fold)
IC50 [6]: < 1000 nM
